Measured values: PubChem BioAssay (NCI)
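Assay format: 96-well plates, 48-hour exposure. GI50: concentration for 50% inhibition of growth. TGI is the concentration that stops growth completely.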

Experiments:
Assay in all cases: NCI anticancer screen, dose series, 48 h
COLO 205 colon = system: COLO 205 colon
NCI/ADR-RES ovarian = system: NCI/ADR-RES ovarian
NCI-H460 lung = system: NCI-H460 lung
MDA-MB-435 = system: MDA-MB-435
MALME-3M melanoma = system: MALME-3M melanoma
M14 melanoma = system: M14 melanoma
KM12 colon = system: KM12 colon
MOLT-4 leukemia = system: MOLT-4 leukemia
TK-10 renal = system: TK-10 renal
K-562 leukemia = system: K-562 leukemia
786-0 renal = system: 786-0 renal
NCI-H226 lung = system: NCI-H226 lung
UO-31 renal = system: UO-31 renal
OVCAR-4 ovarian = system: OVCAR-4 ovarian
RPMI-8226 leukemia = system: RPMI-8226 leukemia
MCF7 breast = system: MCF7 breast
SNB-19 CNS = system: SNB-19 CNS
SW-620 colon = system: SW-620 colon
HCT-15 colon = system: HCT-15 colon
CAKI-1 renal = system: CAKI-1 renal
SK-MEL-5 melanoma = system: SK-MEL-5 melanoma
A549 NSCLC = system: A549 NSCLC
SK-MEL-28 melanoma = system: SK-MEL-28 melanoma
SF-539 CNS = system: SF-539 CNS
RXF 393 renal = system: RXF 393 renal
SK-OV-3 ovarian = system: SK-OV-3 ovarian
OVCAR-8 ovarian = system: OVCAR-8 ovarian
HT29 colon = system: HT29 colon
NCI-H23 lung = system: NCI-H23 lung
EKVX NSCLC = system: EKVX NSCLC
CCRF-CEM leukemia = system: CCRF-CEM leukemia
UACC-257 melanoma = system: UACC-257 melanoma
MDA-MB-468 breast = system: MDA-MB-468 breast
U251 CNS = system: U251 CNS
SF-268 CNS = system: SF-268 CNS
HOP-62 NSCLC = system: HOP-62 NSCLC
A498 renal = system: A498 renal
SR leukemia = system: SR leukemia
HCC-2998 colon = system: HCC-2998 colon
OVCAR-3 ovarian = system: OVCAR-3 ovarian
T-47D breast = system: T-47D breast
BT-549 breast = system: BT-549 breast
SK-MEL-2 melanoma = system: SK-MEL-2 melanoma
IGROV1 ovarian = system: IGROV1 ovarian
PC-3 prostate = system: PC-3 prostate
HS 578T breast = system: HS 578T breast
HOP-92 NSCLC = system: HOP-92 NSCLC
NCI-H522 lung = system: NCI-H522 lung
LOX IMVI melanoma = system: LOX IMVI melanoma
SNB-75 CNS = system: SNB-75 CNS
HCT-116 colon = system: HCT-116 colon
MDA-MB-231 breast = system: MDA-MB-231 breast
UACC-62 melanoma = system: UACC-62 melanoma
SN12C renal = system: SN12C renal
DU-145 prostate = system: DU-145 prostate
OVCAR-5 ovarian = system: OVCAR-5 ovarian
HL-60(TB) leukemia = system: HL-60(TB) leukemia
SF-295 CNS = system: SF-295 CNS
ACHN renal = system: ACHN renal

O=Cc1cncc(-c2ccc3ncnc(N4CCc5cc(F)c(Cl)cc54)c3c2)c1
GI50 (COLO 205 colon): 15.6 µM | TGI (COLO 205 colon): 32.6 µM | GI50 (NCI/ADR-RES ovarian): 5.31 µM | TGI (NCI/ADR-RES ovarian): 36.6 µM | GI50 (NCI-H460 lung): 4.49 µM | TGI (NCI-H460 lung): 20.2 µM | GI50 (MDA-MB-435): 6.39 µM | TGI (MDA-MB-435): 25.1 µM | GI50 (MALME-3M melanoma): 2.72 µM | TGI (MALME-3M melanoma): 18.6 µM | GI50 (M14 melanoma): 5.51 µM | TGI (M14 melanoma): 20.9 µM | GI50 (KM12 colon): 15.4 µM | TGI (KM12 colon): 49.3 µM | GI50 (MOLT-4 leukemia): 2.45 µM | TGI (MOLT-4 leukemia): 7.06 µM | GI50 (TK-10 renal): 1.32 µM | TGI (TK-10 renal): 10.5 µM | GI50 (K-562 leukemia): 7.74 µM | TGI (K-562 leukemia): > 100 µM | GI50 (786-0 renal): 2.11 µM | TGI (786-0 renal): 16.1 µM | GI50 (NCI-H226 lung): 5.1 µM | TGI (NCI-H226 lung): 23.9 µM | GI50 (UO-31 renal): 0.523 µM | TGI (UO-31 renal): 13.8 µM | GI50 (OVCAR-4 ovarian): 5.18 µM | TGI (OVCAR-4 ovarian): 41.1 µM | GI50 (RPMI-8226 leukemia): 3.14 µM | TGI (RPMI-8226 leukemia): 22.6 µM | GI50 (MCF7 breast): 1.64 µM | TGI (MCF7 breast): 7.38 µM | GI50 (SNB-19 CNS): 4.73 µM | TGI (SNB-19 CNS): 35 µM | GI50 (SW-620 colon): 10.3 µM | TGI (SW-620 colon): 26.1 µM | GI50 (HCT-15 colon): 3.41 µM | TGI (HCT-15 colon): 17.2 µM | GI50 (CAKI-1 renal): 1.31 µM | TGI (CAKI-1 renal): 16 µM | GI50 (SK-MEL-5 melanoma): 4.38 µM | TGI (SK-MEL-5 melanoma): 17.6 µM | GI50 (A549 NSCLC): 2.64 µM | TGI (A549 NSCLC): 17.1 µM | GI50 (SK-MEL-28 melanoma): 7.95 µM | TGI (SK-MEL-28 melanoma): 25.2 µM | GI50 (SF-539 CNS): 3.75 µM | TGI (SF-539 CNS): 18.7 µM | GI50 (RXF 393 renal): 1.23 µM | TGI (RXF 393 renal): 4.32 µM | GI50 (SK-OV-3 ovarian): 2.66 µM | TGI (SK-OV-3 ovarian): 9.59 µM | GI50 (OVCAR-8 ovarian): 4.71 µM | TGI (OVCAR-8 ovarian): 46.3 µM | GI50 (HT29 colon): 11.1 µM | TGI (HT29 colon): 34.8 µM | GI50 (NCI-H23 lung): 10.2 µM | TGI (NCI-H23 lung): 27.1 µM | GI50 (EKVX NSCLC): 1.25 µM | TGI (EKVX NSCLC): 8.09 µM | GI50 (CCRF-CEM leukemia): 3.08 µM | TGI (CCRF-CEM leukemia): 14.9 µM | GI50 (UACC-257 melanoma): 8.62 µM | TGI (UACC-257 melanoma): 25.9 µM | GI50 (MDA-MB-468 breast): 1.22 µM | TGI (MDA-MB-468 breast): 3.21 µM | GI50 (U251 CNS): 11.1 µM | TGI (U251 CNS): 34 µM | GI50 (SF-268 CNS): 5.14 µM | TGI (SF-268 CNS): > 100 µM | GI50 (HOP-62 NSCLC): 2.47 µM | TGI (HOP-62 NSCLC): 26 µM | GI50 (A498 renal): 0.898 µM | TGI (A498 renal): 6.88 µM | GI50 (SR leukemia): 3.77 µM | TGI (SR leukemia): 23.7 µM | GI50 (HCC-2998 colon): 9.79 µM | TGI (HCC-2998 colon): 23.1 µM | GI50 (OVCAR-3 ovarian): 2.26 µM | TGI (OVCAR-3 ovarian): 34.9 µM | GI50 (T-47D breast): 1.31 µM | TGI (T-47D breast): 11.1 µM | GI50 (BT-549 breast): 1.77 µM | TGI (BT-549 breast): 12.5 µM | GI50 (SK-MEL-2 melanoma): 12.1 µM | TGI (SK-MEL-2 melanoma): 28.5 µM | GI50 (IGROV1 ovarian): 1.05 µM | TGI (IGROV1 ovarian): 4.78 µM | GI50 (PC-3 prostate): 2.84 µM | TGI (PC-3 prostate): 18.2 µM | GI50 (HS 578T breast): 1.74 µM | TGI (HS 578T breast): 8.98 µM | GI50 (HOP-92 NSCLC): 1.86 µM | TGI (HOP-92 NSCLC): 11.9 µM | GI50 (NCI-H522 lung): 11 µM | TGI (NCI-H522 lung): 30.6 µM | GI50 (LOX IMVI melanoma): 3.68 µM | TGI (LOX IMVI melanoma): 17.4 µM | GI50 (SNB-75 CNS): 1 µM | TGI (SNB-75 CNS): 10 µM | GI50 (HCT-116 colon): 5.41 µM | TGI (HCT-116 colon): 20.4 µM | GI50 (MDA-MB-231 breast): 4.85 µM | TGI (MDA-MB-231 breast): 25.3 µM | GI50 (UACC-62 melanoma): 2.02 µM | TGI (UACC-62 melanoma): 12.4 µM | GI50 (SN12C renal): 2.71 µM | TGI (SN12C renal): 21.2 µM | GI50 (DU-145 prostate): 3.93 µM | TGI (DU-145 prostate): > 100 µM | GI50 (OVCAR-5 ovarian): 4.01 µM | TGI (OVCAR-5 ovarian): 22.1 µM | GI50 (HL-60(TB) leukemia): 2.22 µM | TGI (HL-60(TB) leukemia): 22.1 µM | GI50 (SF-295 CNS): 3.98 µM | TGI (SF-295 CNS): 21.5 µM | GI50 (ACHN renal): 1.02 µM | TGI (ACHN renal): 13.5 µM
